From US10807994B2, “Heterocyclic compounds and uses thereof” (NUVATION BIO INC., priority 2017, dated 2020) come the findings set out here.

One experiment deals with WEE1 kinase enzyme (Homo sapiens (Human), UniProt P30291). The experiment is described as follows: WEE1 IC50 determination, LanthaScreen Terbium labeled TR-FRET kinase assay. It counts as biochemical. Particulars: WEE1 enzyme 1 nM. As to the method: IC50 values of compounds against WEE1 kinase enzyme were determined by LanthaScreen™ Terbium Labeled TR-FRET assay. Kinase assays were performed in 1× kinase buffer (# PV6135, Invitrogen, Life Technologies Grand Island, N.Y.) where total reaction volume was 10 μl in low-volume 384-well plates (#4511, Corning). Serially diluted compounds (3-fold) were incubated with WEE1 Enzyme (1 nM) (# PR7373A, Invitrogen, Life Technologies Grand Island, N.Y.) for 10 min, following which a mixture of ATP […] (# A1852, Sigma, St-Louis, Mo.) and fluorescent-PolyGT substrate (200 nM) (# PV3610, Invitrogen, Life Technologies Grand Island, N.Y.) was added and incubated in dark at room temperature for 1 h. After 1 h, 10 μl stop solution containing Terbium labeled antibody (4 nM) (# PV3529, Invitrogen, Life Technologies Grand Island, N.Y.) and EDTA (# E5134, Sigma, St-Louis, Mo.) (20 mM) in TR-FRET dilution buffer (# PV3574, Invitrogen, Life Technologies Grand Island, N.Y.) was added. Readings were taken in a Synergy Neo Plate reader (BioTek, Winooski) at single excitation of 340 nm and Dual emission at 495 nm and 520 nm respectively.
The % activity of test samples was calculated as (Sample−Min)*100/(Max−Min). [Max: DMSO control, complete reaction with enzyme & DMSO and Min: No enzyme & DMSO]. Percent inhibition (100-% activity) was fitted to the “four-parameter logistic model” in XLfit for determination of IC50 values.

The subject of a further experiment is A549 cells. The experiment is described as follows: Cytotoxicity assay (resazurin), A549 cells, 96 hr. It counts as cell-based. To be noted: read-out: Cell Viability A549 IC50. As to the method: (§1) A549 (CCL-185; ATCC) and A427 (HTB-53; ATCC), both lung epithelial cell lines were seeded in their respective medium (DMEM/MEM, 10569044/41090101; Gibco) at a cell count of 1500 cells per 100 μL per well in a 96 well edge plate (167425; ThermoFisher). Cells were allowed to grow at 37° C. for 24 hr in 5% CO2 environment (culture conditions) in a Nuaire incubator (humidified). Serially diluted test compounds (100 μL) within the desired testing concentration ranges were added to the culture plate were further incubated in culture conditions for 72 hr and 96 hr for A427 and A549 respectively. The experiment was terminated at the designated incubation time by replacing the medium with 100 μL of 1 mM of resazurin (R7017; Sigma) prepared in respective culture medium, and the plates were further incubated in culture conditions for 4-6 hr. Fluorescence was recorded using a multimodal plate reader (Biotek Synergy Neo) at an excitation wavelength of 535 nm and emission wavelength of 590 nm to obtain relative fluorescence units. Data analysis was done by subtracting the background fluorescence (only medium blank) value from each reading and then normalizing with the vehicle control (DMSO treated cells) to obtain percent survival/proliferation. Percent survival was then subtracted by 100 to get the percent inhibition of proliferation which was used to calculate IC50 values. Potency of compounds in other cell lines (As-Pc-1, Panc-10.05, MDAMB231, A172) was determined in an analogous manner.
For orientation: The colour change of resazurin is a common sign of viable cells or microbes.

A further experiment deals with A427 cells. The experiment can be described thus: Cytotoxicity assay (resazurin), A427 cells, 72 hr. It counts as cell-based. Particulars: Homo sapiens, A-427, read-out: Cell Viability A427 IC50. The protocol:
as §1

Molecules are shown by their SMILES. Where a name gives a salt, the structure may show the parent alone. Read-outs that look alike come from different tables or passages of the source.

WEE1 kinase enzyme, sequence (P30291 whole entry): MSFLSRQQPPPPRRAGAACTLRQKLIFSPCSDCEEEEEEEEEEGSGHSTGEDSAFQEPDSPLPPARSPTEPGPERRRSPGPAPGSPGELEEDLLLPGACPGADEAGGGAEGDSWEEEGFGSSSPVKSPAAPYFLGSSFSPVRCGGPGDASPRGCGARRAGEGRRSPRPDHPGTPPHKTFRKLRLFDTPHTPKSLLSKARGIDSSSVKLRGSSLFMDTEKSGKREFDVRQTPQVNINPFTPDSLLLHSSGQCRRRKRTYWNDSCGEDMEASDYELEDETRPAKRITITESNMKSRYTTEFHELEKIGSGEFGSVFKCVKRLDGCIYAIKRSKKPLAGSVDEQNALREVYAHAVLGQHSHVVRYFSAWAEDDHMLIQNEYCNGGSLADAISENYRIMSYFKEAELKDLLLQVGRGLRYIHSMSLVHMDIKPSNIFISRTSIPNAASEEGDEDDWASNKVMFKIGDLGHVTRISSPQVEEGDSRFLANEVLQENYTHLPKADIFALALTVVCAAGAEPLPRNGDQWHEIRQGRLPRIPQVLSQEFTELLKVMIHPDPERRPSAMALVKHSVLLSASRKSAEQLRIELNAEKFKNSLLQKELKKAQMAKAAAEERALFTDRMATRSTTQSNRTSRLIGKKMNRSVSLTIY

By IC50 is commonly meant the concentration at which inhibition is half-maximal. Turning to `CN1CCN(c2ccc(Nc3ncc4c(n3)OCN(c3c(Cl)cncc3Cl)C4=O)cc2)CC1` [Example 1.43, 3-(3,5-dichloropyridin-4-yl)-7-(4-(4-methylpiperazin-1-yl)phenylamino)-2H-pyrimido[5,4-e][1,3]oxazin-4(3H)-one], the half-inhibitory concentration (IC50) worked out at 479 nM on WEE1 kinase enzyme and 22100 nM with A549 cells (Homo sapiens).

Regarding `CNCCNc1ccc(Nc2ncc3c(n2)OCN(c2c(Cl)cccc2Cl)C3=O)cc1` [Example 1.54, 3-(2,6-dichlorophenyl)-7-(4-(2-(methylamino)ethylamino)phenylamino)-2H-pyrimido[5,4-e][1,3]oxazin-4(3H)-one Hydrochloride], the IC50 at WEE1 kinase enzyme amounted to 200 nM; in the experiment with A549 cells (Homo sapiens), 9580 nM; in the experiment on A427 cells, 10500 nM.

`CN1CCc2ccc(Nc3ncc4c(n3)OCN(c3c(Cl)cccc3Cl)C4=O)cc2C1` [Example 1.35, 3-(2,6-dichlorophenyl)-7-(2-methyl-1,2,3,4-tetrahydroisoquinolin-7-ylamino)-2H-pyrimido[5,4-e][1,3]oxazin-4(3H)-one]: the 50% inhibitory concentration (IC50) at WEE1 kinase enzyme was 35 nM; in the experiment on A549 cells (Homo sapiens), 11100 nM.

In the case of `O=C1c2cnc(Nc3ccc(N4CCNC[C@H]4CO)cc3)nc2OCN1c1c(Cl)cccc1Cl` [Example 1.38, (S)-3-(2,6-dichlorophenyl)-7-(4-(2-(hydroxymethyl)piperazin-1-yl)phenylamino)-2H-pyrimido[5,4-e][1,3]oxazin-4(3H)-one], the IC50 was 176 nM at WEE1 kinase enzyme and 9150 nM with A549 cells (Homo sapiens).

Take `O=C1c2cnc(Nc3ccc(N4CCC(O)CC4)cc3)nc2OCN1c1c(Cl)cccc1Cl` [Example 1.45, 3-(2,6-dichlorophenyl)-7-(4-(4-hydroxypiperidin-1-yl)phenylamino)-2H-pyrimido[5,4-e][1,3]oxazin-4(3H)-one]: the concentration for half-maximal inhibition (IC50) at WEE1 kinase enzyme is 288 nM; with A549 cells (Homo sapiens), greater than 30000 nM.

Regarding `O=C1c2cnc(Nc3ccc(N4CCNCC4)c(F)c3)nc2OCN1c1c(Cl)cccc1Cl` [Example 1.29], the IC50 on WEE1 kinase enzyme is 212 nM; in the experiment with A549 cells (Homo sapiens) it was 8880 nM.

Regarding `Cc1cccc(Cl)c1N1COc2nc(Nc3ccc(N4CCNCC4)cc3)ncc2C1=O` [Example 1.30, 3-(2-chloro-6-methylphenyl)-7-((4-(piperazin-1-yl)phenyl)amino)-2,3-dihydro-4H-pyrimido[5,4-e][1,3]oxazin-4-one], the 50% inhibitory concentration (IC50) on WEE1 kinase enzyme was 325 nM; in the experiment with A549 cells (Homo sapiens), 8650 nM.

Consider `CC1Oc2nc(Nc3ccc(N4CCNCC4)c(CO)c3)ncc2C(=O)N1c1c(Cl)cccc1Cl` (centres unmarked) [Example 1.62], for which the IC50 was found to be 123 nM on WEE1 kinase enzyme and 2800 nM in the experiment with A427 cells.

As for `NCC(=O)N1CCN(c2ccc(Nc3ncc4c(n3)OCN(c3c(Cl)cccc3Cl)C4=O)cc2)CC1` [Example 1.46, 7-(4-(4-(2-aminoacetyl)piperazin-1-yl)phenylamino)-3-(2,6-dichlorophenyl)-2H-pyrimido[5,4-e][1,3]oxazin-4(3H)-one], the results for the IC50 on WEE1 kinase enzyme and in the experiment on A549 cells (Homo sapiens) were 53 nM and 9860 nM, respectively.

For the compound `O=C1c2cnc(Nc3ccc(N4CCNC[C@@H]4CO)cc3)nc2OCN1c1c(Cl)cccc1Cl` [Example 1.37, (R)-3-(2,6-dichlorophenyl)-7-(4-(2-(hydroxymethyl)piperazin-1-yl)phenylamino)-2H-pyrimido[5,4-e][1,3]oxazin-4(3H)-one], the IC50 on WEE1 kinase enzyme is 113 nM; with A549 cells (Homo sapiens), 9820 nM.

`O=C1c2cnc(Nc3ccc(N4CCNC(CO)C4)cc3)nc2OCN1c1c(Cl)cccc1Cl` (centres unmarked) [Example 1.96]: the values for the half-inhibitory concentration (IC50) at WEE1 kinase enzyme and in the experiment on A427 cells were 47 nM and 5890 nM, respectively.

For `CC1CN(c2ccc(Nc3ncc4c(n3)OCN(c3c(Cl)cccc3Cl)C4=O)cc2Cl)CCN1` (centres unmarked) [Example 1.228], the IC50 at WEE1 kinase enzyme stood at 127 nM; with A427 cells it was 1460 nM.

In the case of `CC1CNCCN1c1ccc(Nc2ncc3c(n2)SCN(c2c(Cl)cccc2Cl)C3=O)cc1Cl` (centres unmarked) [Example 1.243], the results for the 50% inhibitory concentration (IC50) on WEE1 kinase enzyme and in the experiment with A427 cells were 948 nM and 625 nM, respectively.

Take `CCN(CC)CCOc1ccc(Nc2ncc3c(n2)OCN(c2c(Cl)cccc2Cl)C3=O)cc1` [Example 1.225]: the 50% inhibitory concentration (IC50) on WEE1 kinase enzyme is 282 nM; with A427 cells it was 2160 nM.

Consider `CN1Cc2cc(Nc3ncc4c(n3)OCN(c3c(Cl)cccc3Cl)C4=O)ccc2C(C)(C)C1` [Example 1.4], for which the IC50 was 9 nM at WEE1 kinase enzyme and 5740 nM in the experiment on A549 cells (Homo sapiens).

Take `CN1Cc2cc(Nc3ncc4c(n3)SCN(c3c(Cl)cccc3Cl)C4=O)ccc2C(C)(C)C1` [Example 1.241]: the results for the IC50 at WEE1 kinase enzyme and with A427 cells were 95 nM and 3490 nM, respectively.

For `C[C@@H]1CN(c2ccc(Nc3ncc4c(n3)OCN(c3c(Cl)cccc3Cl)C4=O)cc2F)CCN1` [Example 1.174], the IC50 at WEE1 kinase enzyme amounted to 32 nM; in the experiment on A427 cells it was 3400 nM.

`COc1cc(Nc2ncc3c(n2)SCN(c2c(Cl)cccc2Cl)C3=O)ccc1N1CCC(N(C)C)CC1` [Example 1.242]: the IC50 at WEE1 kinase enzyme was found to be 331 nM; with A427 cells, 1620 nM.

In the case of `O=C1CNCCN1c1ccc(Nc2ncc3c(n2)OCN(c2c(Cl)cccc2Cl)C3=O)cc1` [Example 1.41, 3-(2,6-dichlorophenyl)-7-((4-(2-oxopiperazin-1-yl)phenyl)amino)-2,3-dihydro-4H-pyrimido[5,4-e][1,3]oxazin-4-one], the IC50 is 791 nM on WEE1 kinase enzyme and greater than 30000 nM in the experiment on A549 cells (Homo sapiens).

As to `O=C1c2cnc(Nc3ccc(N4CCNCC4)c(Cl)c3)nc2SCN1c1c(Cl)cccc1Cl` [Example 1.236], the IC50 on WEE1 kinase enzyme turned out to be 335 nM; with A427 cells it was 1770 nM.

Turning to `O=C1c2cnc(Nc3ccc4c(c3)CCNC4)nc2OCN1c1c(Cl)cccc1Cl` [Example 1.44, 3-(2,6-dichlorophenyl)-7-(1,2,3,4-tetrahydroisoquinolin-6-ylamino)-2H-pyrimido[5,4-e][1,3]oxazin-4(3H)-one], the IC50 on WEE1 kinase enzyme was determined as 23 nM; in the experiment on A549 cells (Homo sapiens) it was 5790 nM.

For `O=C1c2cnc(Nc3ccc(N4CCNCC4)cc3)nc2OCN1c1c(F)cccc1F` [Example 1.39, 3-(2,6-difluorophenyl)-7-(4-(piperazin-1-yl)phenylamino)-2H-pyrimido[5,4-e][1,3]oxazin-4(3H)-one], the IC50 on WEE1 kinase enzyme was found to be 540 nM; with A549 cells (Homo sapiens), 10400 nM.

Take `CN(c1ccc(N2CCNCC2)cc1)c1ncc2c(n1)OCN(c1c(Cl)cccc1Cl)C2=O` [Example 1.104]: the 50% inhibitory concentration (IC50) was greater than 5000 nM at WEE1 kinase enzyme and 27800 nM in the experiment on A427 cells.

As for `O=C1c2cnc(Nc3ccc(N4CCCNCC4)cc3)nc2OCN1c1c(Cl)cccc1Cl` [Example 1.61], the results for the concentration for half-maximal inhibition (IC50) on WEE1 kinase enzyme and in the experiment on A427 cells were 110 nM and 4120 nM, respectively.

On to `Cc1cc(Nc2ncc3c(n2)OCN(c2c(Cl)cccc2Cl)C3=O)cc(C)c1N1CCNCC1` [Example 1.176], for which the IC50 at WEE1 kinase enzyme was determined as 105 nM; with A427 cells, 3250 nM.

Take `CN(C)C1CCN(c2ccc(Nc3ncc4c(n3)SCN(c3c(Cl)cccc3Cl)C4=O)cc2C#N)CC1` [Example 1.239]: the results for the concentration for half-maximal inhibition (IC50) at WEE1 kinase enzyme and in the experiment with A427 cells were 508 nM and 765 nM, respectively.

Regarding `CC1(C)NCCc2cc(Nc3ncc4c(n3)SCN(c3c(Cl)cccc3Cl)C4=O)ccc21` [Example 1.246], the half-inhibitory concentration (IC50) at WEE1 kinase enzyme amounted to 61 nM; in the experiment on A427 cells, 2440 nM.

`CN1CCN(c2ccc(Nc3cc4c(cn3)C(=O)N(c3c(Cl)cccc3Cl)CO4)cc2)CC1` [Example 1.32, 3-(2,6-dichlorophenyl)-7-(4-(4-methylpiperazin-1-yl)phenylamino)-2H-pyrido[3,4-e][1,3]oxazin-4(3H)-one]: the results for the IC50 on WEE1 kinase enzyme and with A549 cells were 366 nM and 7430 nM, respectively.

Regarding `CC1CN(c2ccc(Nc3ncc4c(n3)SCN(c3c(Cl)cccc3Cl)C4=O)cc2Cl)CCN1` (centres unmarked) [Example 1.244], the 50% inhibitory concentration (IC50) on WEE1 kinase enzyme amounted to 351 nM; in the experiment with A427 cells it was 510 nM.
